# In US20060134188A1, “Transdermal pharmaceutical preparation with a progesterone A-specific ligand (PRASL) as active ingredient” (priority 2004, published 2006):
# Assays:
# [1] = Solubility of PRASL in the adhesive matrix; assay type: physicochemical; conditions: acrylate adhesive matrix DuroTak 387-2287
# Excerpt: The selection of suitable adhesive matrices occurs based on the solubility of PRASL in the adhesive matrices. Suitable adhesive matrices for the present invention are those in which the solubility of PRASL is between 0.1 to 5%. Adhesive matrices, in which the solubility of PRASL is between 0.1 to 2%, have proven to be especially suitable.
# If the solubility of the adhesive matrix used for PRASL is larger than 2 to 5%, as e.g. in the case of the acrylate adhesive matrix, DuroTak 387-2287, the entire effective ingredient amount dissolves after film-formation and the advantages of the amorphous effective ingredient dispersion according to the present invention cannot be employed.
# [2] = background statement; cited from earlier work
structure (smiles),measurement,setting,value
"O=C1OCc2cc(NC(=O)[C@](O)(CC3(c4cc(C(F)(F)F)ccc4F)CC3)C(F)(F)F)ccc21 [PRASL, (R)-3-{1-[2-fluoro-5-(trifluoromethyl)-phenyl]-cyclopropyl}-2-hydroxy-N-(phthalid-5-yl)-2-(trifluoromethyl)-propanamide]",Solubility of the adhesive matrix for PRASL,[1],2 to 5%
same,Daily dosage that activates pharmacological effects,[2],30 micrograms
